Measurements reported in patent US12371454B2, “Cyclic peptide compound having Kras inhibitory action” (priority 2019, dated 2025).
Starred links: 1 amine or outer side, 2 acyl side, 3 side chain; linkers in the order of their positions; H or OH if unused. Positions of bridges follow the written chain, without caps; N, C: chain ends. Non-standard residues stand in square brackets, D forms with d. Residues, ends and D or L forms follow the SMILES beside them. *: point of attachment. hPhe(3-Cl-4-CF3) = N[C@@H](CCc1ccc(C(F)(F)F)c(Cl)c1)C(=O)O; NMePhe(4-CF3) = CN[C@@H](Cc1ccc(C(F)(F)F)cc1)C(=O)O; hPhe(4-CF3) = N[C@@H](CCc1ccc(C(F)(F)F)cc1)C(=O)O; NMeAbu(4,4,4-F3) = CN[C@@H](CC(F)(F)F)C(=O)O; NMePhe(4-Cl) = CN[C@@H](Cc1ccc(Cl)cc1)C(=O)O; NMePhe(3-Me) = CN[C@@H](Cc1cccc(C)c1)C(=O)O; NMePhe(4-Me) = CN[C@@H](Cc1ccc(C)cc1)C(=O)O; Leu(4,5-dehydro) = C=C(C)C[C@H](N)C(=O)O; NMeGly(cPent) = CN[C@H](C(=O)O)C1CCCC1; Phe(3-I) = N[C@@H](Cc1cccc(I)c1)C(=O)O; Pro(4,4-F2) = O=C(O)[C@@H]1CC(F)(F)CN1; NMehPhe = CN[C@@H](CCc1ccccc1)C(=O)O; NMeCha = CN[C@@H](CC1CCCCC1)C(=O)O; NMeChg = CN[C@H](C(=O)O)C1CCCCC1; NMeF = CN[C@@H](Cc1ccccc1)C(=O)O; NMeI = CC[C@H](C)[C@H](NC)C(=O)O; dNMeF = CN[C@H](Cc1ccccc1)C(=O)O; NMeβAla = CN(CCC(=O)[*:2])[*:1]; NMeD = CN[C@@H](CC(=O)O)C(=O)O; CH2CONHtBu = CC(C)(C)NC(=O)C*; NMeL = CN[C@@H](CC(C)C)C(=O)O; NMeV = CN[C@H](C(=O)O)C(C)C; d(β3hA) = C[C@@H](N)CC(=O)O; NMeS = CN[C@@H](CO)C(=O)O; NMeA = CN[C@@H](C)C(=O)O; NMeAib = CNC(C)(C)C(=O)O; Piperidide = C1CCN(*)CC1; Pyrrolidide = C1CCN(*)C1; dNMeA = CN[C@H](C)C(=O)O; Ac5c = NC1(C(=O)O)CCCC1; Aze = O=C(O)[C@@H]1CCN1; Aib = CC(C)(N)C(=O)O; Isopentyl = CC(C)CC*; NEtG = CCNCC(=O)O; Sar = CNCC(=O)O

target: T1, Kras and SOS1 (biotin-tagged human Kras loaded with GDP, His-tagged human SOS1) (Homo sapiens, UniProt P01116, G12D); experiment: Protein-protein interaction inhibition between Kras and SOS1 (KrasGl2D-SOS PPI) using AlphaScreen; format: binding; details: AlphaScreen; biotin-tagged human Kras loaded with GDP, His-tagged human SOS1; read-out: KRAS G12D-SOS PPI IC50
T1 construct: made in house; host or cells: E. coli (stated for Kras only)
Outline: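 Binding between SOS1 and Kras is detected as bead-proximity luminescence: illuminate Ni-conjugated donors (680 nm), collect 520-620 nm emission from streptavidin-conjugated acceptors; Kras carries biotin and GDP loaded after purification, SOS1 carries a His tag.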

T1 sequence (P01116 1-188 isoform P01116-2 G12D): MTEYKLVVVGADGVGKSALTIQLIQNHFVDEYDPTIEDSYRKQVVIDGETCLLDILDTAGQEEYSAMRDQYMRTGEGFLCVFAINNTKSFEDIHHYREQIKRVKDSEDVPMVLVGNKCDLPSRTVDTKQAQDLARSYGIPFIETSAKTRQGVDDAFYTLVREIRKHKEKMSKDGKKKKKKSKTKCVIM

SMILES | IC50
CC[C@H](C)[C@@H]1NC(=O)[C@H](C)N(C)C(=O)C[C@@H](C)NC(=O)[C@H](C(C)C)N(C)C(=O)[C@H](Cc2ccccc2)N(C)C(=O)[C@H](CC(C)C)N(C)C(=O)[C@H](CCc2ccc(C(F)(F)F)cc2)NC(=O)CN(C)C(=O)[C@H](Cc2ccc(Cl)cc2)N(C)C(=O)[C@@H]2CCN2C(=O)CN(C)C1=O [Compound 913] (cyclo([Aze][NMePhe(4-Cl)][Sar][hPhe(4-CF3)][NMeL][NMeF][NMeV][d(β3hA)][NMeA]I[Sar])) | 53 nM
CC[C@H](C)[C@@H]1NC(=O)[C@H](C)N(C)C(=O)C[C@@H](C)NC(=O)[C@H](C2CCCC2)N(C)C(=O)C2(CCCC2)NC(=O)[C@@H]2CCCN2C(=O)[C@H](CCc2ccc(C(F)(F)F)c(Cl)c2)NC(=O)[C@@H](C)N(C)C(=O)[C@H](Cc2cccc(C)c2)N(C)C(=O)CN(C)C(=O)CN(C)C1=O [Compound 1088] (cyclo([Ac5c][NMeGly(cPent)][d(β3hA)][NMeA]I[Sar][Sar][NMePhe(3-Me)][dNMeA][hPhe(3-Cl-4-CF3)]P)) | 170 nM
CC[C@H](C)[C@@H]1NC(=O)[C@H](CC(C)C)N(C)C(=O)C[C@@H](C(=O)N(C)C)N(C)C(=O)[C@H]([C@@H](C)CC)N(C)C(=O)[C@H](C)NC(=O)[C@@H](C)NC(=O)[C@H](CCc2ccc(C(F)(F)F)c(Cl)c2)NC(=O)CN(C)C(=O)[C@H](Cc2ccc(C)cc2)N(C)C(=O)[C@@H]2CCN2C(=O)[C@H](C)N(C)C1=O [Compound 382] ([NMeL]I[NMeA][Aze][NMePhe(4-Me)][Sar][hPhe(3-Cl-4-CF3)][dA]A[NMeI][NMeD]-NMe2; lactam N-11) | 35 nM
CC[C@H](C)[C@@H]1NC(=O)CCN(C)C(=O)[C@@H](Cc2ccccc2)N(C)C(=O)[C@H](C2CCCC2)N(C)C(=O)C2(CCCC2)NC(=O)[C@@H]2CCCN2C(=O)[C@H](CCc2ccc(C(F)(F)F)c(Cl)c2)NC(=O)CN(C)C(=O)[C@H](CC2CCCCC2)N(C)C(=O)CN(C)C(=O)CN(C)C1=O [Compound 753] (cyclo([Ac5c][NMeGly(cPent)][dNMeF][NMeβAla]I[Sar][Sar][NMeCha][Sar][hPhe(3-Cl-4-CF3)]P)) | 35 nM
CC[C@H](C)[C@@H]1NC(=O)[C@H](C)N(C)C(=O)C[C@@H](C)NC(=O)[C@H](C2CCCC2)N(C)C(=O)C2(CCCC2)NC(=O)[C@@H]2CCCN2C(=O)[C@H](CCc2ccc(C(F)(F)F)c(Cl)c2)NC(=O)[C@H]2CCCN2C(=O)[C@H](Cc2ccc(C(F)(F)F)cc2)N(C)C(=O)[C@@H]2CCN2C(=O)CN(C)C1=O [Compound 1522] (cyclo([Ac5c][NMeGly(cPent)][d(β3hA)][NMeA]I[Sar][Aze][NMePhe(4-CF3)][dP][hPhe(3-Cl-4-CF3)]P)) | 90 nM
C=C(C)C[C@@H]1NC(=O)[C@H](Cc2cccc(I)c2)NC(=O)CN(C)C(=O)[C@H](Cc2ccc(Cl)cc2)N(C)C(=O)[C@@H]2CCN2C(=O)CN(C)C(=O)[C@H]([C@@H](C)CC)NC(=O)[C@H](CC(C)C)N(C)C(=O)C[C@@H](C(=O)N2CCCCC2)N(C)C(=O)[C@H](CC(C)C)NC(=O)C(C)(C)N(C)C1=O [Compound 1414] ([NMeL]I[Sar][Aze][NMePhe(4-Cl)][Sar][Phe(3-I)][Leu(4,5-dehydro)][NMeAib]L[NMeD]-Piperidide; lactam N-11) | 38 nM
CC[C@H](C)[C@@H]1NC(=O)[C@H](CC(F)(F)F)N(C)C(=O)C[C@@H](C(=O)N2CCCC2)N(C)C(=O)[C@H](C2CCCCC2)N(C)C(=O)C2(CCCC2)NC(=O)[C@@H]2CC(F)(F)CN2C(=O)[C@H](CCc2ccc(C(F)(F)F)c(Cl)c2)NC(=O)CN(C)C(=O)[C@H](Cc2ccc(C(F)(F)F)cc2)N(C)C(=O)CN(C)C(=O)CN(C)C1=O [Compound 1196] ([NMeAbu(4,4,4-F3)]I[Sar][Sar][NMePhe(4-CF3)][Sar][hPhe(3-Cl-4-CF3)][Pro(4,4-F2)][Ac5c][NMeChg][NMeD]-Pyrrolidide; lactam N-11) | 0.48 nM
CC[C@H](C)[C@@H]1NC(=O)[C@H](CC(C)C)N(C)C(=O)C[C@@H](C(=O)N2CCCCC2)N(C)C(=O)[C@H](C(C)C)N(C)C(=O)C2(CCCC2)NC(=O)[C@@H]2CCCN2C(=O)[C@H](CCc2ccc(C(F)(F)F)c(Cl)c2)NC(=O)CN(C)C(=O)[C@H](CC2CCCCC2)N(C)C(=O)[C@@H]2CCN2C(=O)[C@H](CCc2ccccc2)N(C)C1=O [Compound 1624] ([NMeL]I[NMehPhe][Aze][NMeCha][Sar][hPhe(3-Cl-4-CF3)]P[Ac5c][NMeV][NMeD]-Piperidide; lactam N-11) | 92 nM
CC[C@H](C)[C@@H]1NC(=O)[C@H](CC(C)C)N(C)C(=O)C[C@@H](C)NC(=O)[C@H](CC(C)C)N(C)C(=O)C(C)(C)NC(=O)[C@H](COCC(=O)NC(C)(C)C)N(C)C(=O)[C@H](CCc2ccc(C(F)(F)F)c(Cl)c2)NC(=O)CN(C)C(=O)[C@H](COCCC(C)C)N(C)C(=O)[C@@H]2CCN2C(=O)CN(CC)C1=O [Compound 1513] (cyclo([Aib][NMeL][d(β3hA)][NMeL]I[NEtG][Aze][NMeS](Isopentyl)[Sar][hPhe(3-Cl-4-CF3)][NMeS](CH2CONHtBu))) | 270 nM
